{
  "source": "patent US20190166843A1",
  "about": "“Pesticidal Active Mixtures Comprising Isoxazoline Compounds I” (BASF SE, priority 2008, published 2019)",
  "key": {"[1]": {"tested_on": "Boll Weevil (Anthonomus grandis)", "assay": "Test B.2 Control of boll weevil, insect diet with eggs, 24-well plates", "assay_type": "in vivo", "conditions": "5 days", "from_the_text": "(§1) Synergism can be described as an interaction where the combined effect of two or more compounds is greater than the sum of the individual effects of each of the compounds. The presence of a synergistic effect in terms of percent control, between two mixing partners (X and Y) can be calculated using the Colby equation (Colby, S. R., 1967, Calculating Synergistic and Antagonistic Responses in Herbicide Combinations, Weeds, 15, 20-22):\n(§2) When the observed combined control effect is greater than the expected combined control effect (E), then the combined effect is synergistic.\nFor evaluating control of boll weevil (Anthonomus grandis) the test unit consisted of 24-well-microtiter plates containing an insect diet and 20-30 A. grandis eggs. The compounds or mixtures were formulated using a solution containing 75 wt % water and 25 wt % DMSO. Different concentrations of formulated compounds or mixtures were sprayed onto the insect diet at 20 μl, using a custom built micro atomizer, at two replications.\nFor experimental mixtures in these tests identical volumes of both mixing partners at the desired concentrations respectively, were mixed together.\nAfter application, microtiter plates were incubated at 23±1° C., 50±5% RH for 5 days. Egg and larval mortality was then visually assessed."}, "[2]": {"tested_on": "Green Peach Aphid (Myzus persicae)", "assay": "Test B.1 Control of green peach aphid through systemic means, artificial diet under membrane, 96-well plates", "assay_type": "in vivo", "conditions": "3 days", "from_the_text": "as §1, §2\nFor evaluating control of green peach aphid (Myzus persicae) through systemic means the test unit consisted of 96-well-microtiter plates containing liquid artificial diet under an artificial membrane.\nThe compounds or mixtures were formulated using a solution containing 75 wt % water and 25 wt % DMSO. Different concentrations of formulated compounds or mixtures were pipetted into the aphid diet, using a custom built pipetter, at two replications. For experimental mixtures in these tests identical volumes of both mixing partners at the desired concentrations respectively, were mixed together.\nAfter application, 5-8 adult aphids were placed on the artificial membrane inside the microtiter plate wells. The aphids were then allowed to suck on the treated aphid diet and incubated at 23±1° C., 50+5% RH for 3 days. Aphid mortality and fecundity was then visually assessed."}, "[3]": {"conditions": "C.I.240 alone at 0.08 ppm (0 + 0.08)"}, "[4]": {"conditions": "compound II alone at 0.4 ppm (0.4 + 0)"}},
  "data": [
    {"compound": "CC1(C)C(C=C(Cl)Cl)C1C(=O)OC(C#N)c1cccc(Oc2ccccc2)c1", "note": "(stereo not drawn) [Alpha-Cypermethrin, alpha-cypermethrin]", "values": [
      {"measurement": "Average Control %", "setting": "[1]; compound II alone at 0.08 ppm (0.08 + 0)", "result": 0, "unit": "%"}
    ]},
    {"compound": "Cc1cc(C2=NOC(c3cc(Cl)cc(Cl)c3)(C(F)(F)F)C2)ccc1C(=O)NCC(=O)NCC(F)(F)F", "note": "(stereo not drawn) [C.I.240]", "values": [
      {"measurement": "Average Control %", "setting": "[2]; [3]", "result": 0, "unit": "%"},
      {"measurement": "Average Control %", "setting": "[2]; C.I.240 alone at 2 ppm (0 + 2)", "result": 0, "unit": "%"},
      {"measurement": "Average Control %", "setting": "[1]; [3]", "result": 0, "unit": "%"},
      {"measurement": "Average Control %", "setting": "[1]; C.I.240 alone at 0.4 ppm (0 + 0.4)", "result": 50, "unit": "%"}
    ]},
    {"compound": "N#CCNC(=O)c1cnccc1C(F)(F)F", "note": "[Flonicamid, flonicamid]", "values": [
      {"measurement": "Average Control %", "setting": "[1]; compound II alone at 4 ppm (4 + 0)", "result": 0, "unit": "%"}
    ]},
    {"compound": "O=[N+]([O-])NC1=NCCN1Cc1ccc(Cl)nc1", "note": "[Imidacloprid, imidacloprid]", "values": [
      {"measurement": "Average Control %", "setting": "[2]; [4]", "result": 0, "unit": "%"}
    ]},
    {"compound": "CN1COCN(Cc2cnc(Cl)s2)/C1=N\\[N+](=O)[O-]", "note": "[Thiamethoxam, thiamethoxam]", "values": [
      {"measurement": "Average Control %", "setting": "[2]; [4]", "result": 25, "unit": "%"}
    ]},
    {"compound": "abamectin", "values": [
      {"measurement": "Average Control %", "setting": "[1]; compound II alone at 0.016 ppm (0.016 + 0)", "result": 50, "unit": "%"}
    ]}
  ]
}
